Laboratory results reported in paper PMC12292862 (Biomedicines, 2025).
Marks after values point to notes of the source that are not given here.

Columns and labels:
[1] = system: carrageenan-induced rat paw edema; assay: Carrageenan-induced paw edema; type: in vivo; details: for inhibition of paw edema after 4 h: compounds 200 mg/kg i.p., indomethacin 10 mg/kg, 4 h after carrageenan; for inhibition of paw edema after 1 h / inhibition of paw edema after 2 h / inhibition of paw edema after 3 h: 200 mg/kg i.p.; for inhibition of paw edema after 1 h: 1 h after carrageenan; for inhibition of paw edema after 2 h: 2 h after carrageenan; for inhibition of paw edema after 3 h: 3 h after carrageenan
Description: Rats’ carrageenan-induced paw edema model was used to assess the novel synthesized drugs’ anti-inflammatory properties. A total of 180–190 g of male Wistar rats were used for the experiments. In the animal house at Sohag University in Sohag, Egypt, every animal was kept in careful laboratory conditions. After being weighed and divided into six groups at random, the animals are housed for a week to reduce stress and allow them to get used to the laboratory environment. The chemicals that were synthesized were administered intraperitoneally (i.p.) to rats at a dosage of 200 mg/kg. The control group received only vehicles. […] The rats were given a 0.2 mL sub-plantar injection of a 1% (w/v) suspension of carrageenan (made in PBS) in their right hind paw thirty minutes following the injection of synthesized compounds [33]. […] The % inhibition of paw edema was calculated by the following formula [34]:%Inhibition = ((Mean edema of control group − Mean edema of test compound)/(Mean edema of control group)) × 100.

[2] = system: TNF-α; assay: Serum TNF-α (ELISA) in carrageenan-injected rats; type: in vivo, rat; details: compounds 200 mg/kg i.p., indomethacin 10 mg/kg, mean ± SD
Description: (§1) The selective pro-inflammatory cytokines were measured quantitatively using rat-specific Enzyme-Linked Immunosorbent Assay (ELISA) kits from Thermo Scientific™ (Waltham, MA, USA) with CAT. No. ERCRP for CRP; from Elabscience with Cat. No. E-EL-R2856 for TNF-α and with Cat. No. E-EL-R0011 for IL-1α; from CUSABIO, Houston, TX, USA, with Cat. No. CSB-E04640r for IL-6; and from My BioSource Co, USA, with Cat. No. MBS825017 for IL-1β, with Cat. No. MBS753621 for rat cyclooxygenase 1, and with Cat. No. MBS266603 for rat cyclooxygenase 2. Meanwhile, an ovine COX inhibitor-screening in vitro assay (item number 760111) was obtained from Cayman Chemical (Ann Arbor, MI, USA). We purchased malondialdehyde (MDA), glutathione (GSH), and superoxide dismutase (SOD) detection kits from Nanjing Jiancheng Bio-Technology Co. Ltd. (Nanjing, China).
(§2) At the end of the experiments, the rats were subjected to anesthesia with chloroform and then sacrificed. Blood was obtained via heart puncture for biochemical analysis. Following the animals’ sacrifice, the paws were taken out, decalcified, and stored in a 10% formalin solution. To prepare the tissue samples, they were sliced into thicknesses of 5 µm. Hematoxylin and eosin dyes were used to create the histology slides, which were then examined using a photomicroscope (Meiji Techno®, Iruma, Japan) for pathological alterations. The presence of inflammation was documented. Protease/phosphatase inhibitor cocktail in cold phosphate-buffered saline (1:4) (pH 7, 0.01 mol/L) (Cat. No. PPC1010, Sigma-Aldrich) was used to homogenize each rat’s paw piece in a glass homogenizer. After filtering and centrifuging the resultant homogenate for five minutes at 5000× g, oxidative stress biomarkers like GSH, SOD, and MDA were measured. The trials were repeated three times.

[3] = system: glutathione (GSH); assay: Paw tissue oxidative stress biomarker GSH; type: in vivo, rat; details: carrageenan rats, 200 mg/kg i.p., result in words
Description: as §1, §2

[4] = system: IL-1β; assay: Serum IL-1β (ELISA) in carrageenan-injected rats; type: in vivo, rat; details: compounds 200 mg/kg i.p., indomethacin 10 mg/kg, mean ± SD
Description: as §1, §2

[5] = system: rat cyclooxygenase 2; assay: COX-2 level in carrageenan-injected paw (ELISA); type: in vivo; details: compounds 200 mg/kg i.p., indomethacin 10 mg/kg, mean ± SD
Description: as §1, with “Meanwhile, an ovine COX inhibitor-screening in vitro assay (item number 760111) was obtained from Cayman Chemical (Ann Arbor, MI, USA).” left out
as §2

[6] = system: superoxide dismutase (SOD); assay: Paw tissue oxidative stress biomarker SOD; type: in vivo, rat; details: carrageenan rats, 200 mg/kg i.p.
Description: as §1, §2

[7] = system: CRP; assay: Serum CRP (ELISA) in carrageenan-injected rats; type: in vivo, rat; details: compounds 200 mg/kg i.p., indomethacin 10 mg/kg, mean ± SD
Description: as §1, §2

[8] = biological target: T1, COX-1 (Ovis aries, UniProt P05979); assay: In vitro colorimetric COX (ovine) inhibitor-screening assay, COX-1; type: biochemical; details: ovine COX-1, tested at 50, 100 and 150 µg/mL
T1 construct: purchased Cayman Chemical 760111
T1 sequence (P05979 25-600): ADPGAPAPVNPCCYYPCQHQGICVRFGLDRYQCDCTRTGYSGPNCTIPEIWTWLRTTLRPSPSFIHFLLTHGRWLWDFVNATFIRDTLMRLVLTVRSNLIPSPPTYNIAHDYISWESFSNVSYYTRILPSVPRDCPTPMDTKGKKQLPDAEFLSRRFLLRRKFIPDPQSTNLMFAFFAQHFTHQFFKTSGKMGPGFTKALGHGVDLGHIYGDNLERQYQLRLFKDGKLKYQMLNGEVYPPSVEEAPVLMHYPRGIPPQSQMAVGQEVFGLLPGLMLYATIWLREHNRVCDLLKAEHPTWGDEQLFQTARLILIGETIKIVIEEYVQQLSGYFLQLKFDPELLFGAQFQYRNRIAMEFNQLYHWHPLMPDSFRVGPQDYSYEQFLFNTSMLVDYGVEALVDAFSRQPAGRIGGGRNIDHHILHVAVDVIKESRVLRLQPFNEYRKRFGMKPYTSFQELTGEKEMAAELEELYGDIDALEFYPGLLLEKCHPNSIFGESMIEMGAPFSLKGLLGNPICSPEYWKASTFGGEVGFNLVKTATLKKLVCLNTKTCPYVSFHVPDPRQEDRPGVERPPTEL
Description: The test compounds’ ability to suppress COX-1 and COX-2 was evaluated using a colorimetric COX (ovine) inhibitor-screening method (Cayman Chemical, Item Number 760111). In brief, 150 μL of assay buffer, 10 μL of heme, 10 μL of enzyme (COX-1 or COX-2), and 10 μL of compound (1 mg/mL) make up the reaction mixture. In a final volume of […], the test compounds were evaluated at doses of 50, 100, and 150 μg/mL. The cyclooxygenase peroxidase component is used in the experiment. By monitoring the appearance of oxidized N, N, […] (TMPD) at 590 nm, the peroxidase activity is measured […]. […] The following formula was used to determine the % COX inhibition: The COX inhibition activity percentage is equal to (1 − T/C ×100), where T is the inhibitor well’s absorbance and C is the starting activity’s absorbance at 100% without the inhibitor well.

SMILES	inhibition of paw edema after 4 h [1] [%]	TNF-α [2]	GSH concentration [3]	IL-1β [4]	COX-2 level [5] [ng/mL]	SOD activity [6]	CRP [7]	COX-1 inhibition % (mean activity) [8] [%]	inhibition of paw edema after 1 h [1] [%]	inhibition of paw edema after 2 h [1] [%]	inhibition of paw edema after 3 h [1] [%]	TNF-α ([2]; listed as C3)	IL-1β ([4]; listed as C3)	SOD activity ([6]; 200 mg/kg)	SOD activity ([6]; listed as compound 3, 200 mg/kg) [U/mg protein]
CC1(C)CC(=O)CC2(C1)N=C(N)Nc1nc(C(=O)Nc3ccc(S(N)(=O)=O)cc3)nn12 (stereo not drawn) [Compound 2]	72.08	9.38 ± 0.20 ^b pg/mL	notable improvements	77.98 ± 0.45 ^b pg/mL	4.10 ± 0.09	notable improvements	3.02 ± 0.28 ^b ng/mL	69							
NC1=NC2(CCCCCC2)n2nc(C(=O)Nc3ccc(S(N)(=O)=O)cc3)nc2N1 [Compound 1, 5′-Amino-N-(4-sulfamoylphenyl). -1′H-spiro[cycloheptane-1,7′-[1,2,4]triazolo[1,5-a][1,3,5] -triazine] -2′-carboxamide]	96.31	8.27 ± 0.19 ^b pg/mL	notable improvements	64.98 ± 0.30 ^b pg/mL	3.44 ± 0.30	notable improvements	4.19 ± 0.28 ^b ng/mL	70	53.6	65.74	78.52				
NC1=NC2(c3ccccc3Cc3ccccc32)n2nc(C(=O)Nc3ccc(S(N)(=O)=O)cc3)nc2N1 [Compound 3]	99.69	7.16 ± 0.13 pg/mL	near-control values	60.38 ± 0.73 pg/mL	2.22 ± 0.06		2.20 ± 0.36 ^b ng/mL	70	59.5	79.93	97.23	7.16 ± 0.13 ^b pg/mL	60.38 ± 0.73 ^b pg/mL	near-control values	38.48 ± 0.31
